Data published in article PMC5851003 (ACS nano, 2018).

Assays:
[1] = target: human α4β2 nicotinic acetylcholine receptor (nAChR) (Homo sapiens, UniProt P17787+P43681); type: binding; settings: SH-EP1-α4β2 cells
CXCR-4 receptor = CXCR-4 receptor (Homo sapiens, UniProt P61073); type: binding; settings: A549 cells
Sequence of CXCR-4 receptor (P61073 whole entry): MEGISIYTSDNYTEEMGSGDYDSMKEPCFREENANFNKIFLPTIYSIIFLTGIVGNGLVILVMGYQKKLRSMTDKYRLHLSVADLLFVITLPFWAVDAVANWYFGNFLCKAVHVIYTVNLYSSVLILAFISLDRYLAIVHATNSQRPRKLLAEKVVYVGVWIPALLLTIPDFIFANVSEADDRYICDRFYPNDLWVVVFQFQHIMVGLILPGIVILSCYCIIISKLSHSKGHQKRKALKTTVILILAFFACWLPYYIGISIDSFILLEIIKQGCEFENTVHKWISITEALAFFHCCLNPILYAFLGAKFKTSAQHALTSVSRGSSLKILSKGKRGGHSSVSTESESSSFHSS

Sequence of human α4β2 nicotinic acetylcholine receptor (nAChR) (P43681 29-627 limits assumed): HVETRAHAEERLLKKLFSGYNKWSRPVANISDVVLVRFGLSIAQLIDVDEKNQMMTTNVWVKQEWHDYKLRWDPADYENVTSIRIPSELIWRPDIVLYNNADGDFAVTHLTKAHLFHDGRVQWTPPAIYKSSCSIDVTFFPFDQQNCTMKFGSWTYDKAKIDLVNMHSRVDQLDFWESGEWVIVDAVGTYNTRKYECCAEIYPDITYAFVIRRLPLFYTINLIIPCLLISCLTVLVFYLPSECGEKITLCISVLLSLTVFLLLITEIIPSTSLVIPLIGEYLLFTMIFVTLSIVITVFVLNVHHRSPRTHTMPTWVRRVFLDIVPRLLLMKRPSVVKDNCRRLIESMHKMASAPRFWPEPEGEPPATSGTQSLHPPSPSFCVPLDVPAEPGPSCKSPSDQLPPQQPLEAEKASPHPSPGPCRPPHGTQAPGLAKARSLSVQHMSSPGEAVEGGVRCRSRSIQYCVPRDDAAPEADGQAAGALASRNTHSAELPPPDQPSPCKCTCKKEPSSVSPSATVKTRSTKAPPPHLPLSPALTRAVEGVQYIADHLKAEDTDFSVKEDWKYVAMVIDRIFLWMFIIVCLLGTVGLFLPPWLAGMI
Sequence of human α4β2 nicotinic acetylcholine receptor (nAChR) (P17787 26-502): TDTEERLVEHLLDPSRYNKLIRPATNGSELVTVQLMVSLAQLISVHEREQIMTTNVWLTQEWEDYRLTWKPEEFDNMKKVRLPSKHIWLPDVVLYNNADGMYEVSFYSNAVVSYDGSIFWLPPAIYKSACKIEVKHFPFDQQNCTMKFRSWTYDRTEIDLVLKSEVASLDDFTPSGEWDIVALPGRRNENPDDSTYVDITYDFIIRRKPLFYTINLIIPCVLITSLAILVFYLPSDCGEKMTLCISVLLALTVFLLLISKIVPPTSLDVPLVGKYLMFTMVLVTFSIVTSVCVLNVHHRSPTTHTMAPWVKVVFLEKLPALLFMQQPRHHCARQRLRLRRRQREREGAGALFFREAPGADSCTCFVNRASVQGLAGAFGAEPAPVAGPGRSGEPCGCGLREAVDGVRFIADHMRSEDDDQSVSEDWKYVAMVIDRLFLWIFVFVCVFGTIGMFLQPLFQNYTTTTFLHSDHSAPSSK

SMILES	maximum membrane deformation [1]	binding induced membrane deformation, maximum value (CXCR-4 receptor)
CC(=O)OCC[N+](C)(C)C [acetylcholine]	around 70 nm	
c1cc(CN2CCCNCCNCCCNCC2)ccc1CN1CCCNCCNCCCNCC1 [AMD3100]		46 nm
